Patent publication US6908935B2, “Calcium receptor modulating agents” (Amgen Inc., priority 2002, dated 2005)

Target: T1, human parathyroid cell Ca^2+ receptor (hPCaR) (Homo sapiens, UniProt P41180)
T1 construct: expressed in transfected cells
T1 sequence (P41180 20-1078): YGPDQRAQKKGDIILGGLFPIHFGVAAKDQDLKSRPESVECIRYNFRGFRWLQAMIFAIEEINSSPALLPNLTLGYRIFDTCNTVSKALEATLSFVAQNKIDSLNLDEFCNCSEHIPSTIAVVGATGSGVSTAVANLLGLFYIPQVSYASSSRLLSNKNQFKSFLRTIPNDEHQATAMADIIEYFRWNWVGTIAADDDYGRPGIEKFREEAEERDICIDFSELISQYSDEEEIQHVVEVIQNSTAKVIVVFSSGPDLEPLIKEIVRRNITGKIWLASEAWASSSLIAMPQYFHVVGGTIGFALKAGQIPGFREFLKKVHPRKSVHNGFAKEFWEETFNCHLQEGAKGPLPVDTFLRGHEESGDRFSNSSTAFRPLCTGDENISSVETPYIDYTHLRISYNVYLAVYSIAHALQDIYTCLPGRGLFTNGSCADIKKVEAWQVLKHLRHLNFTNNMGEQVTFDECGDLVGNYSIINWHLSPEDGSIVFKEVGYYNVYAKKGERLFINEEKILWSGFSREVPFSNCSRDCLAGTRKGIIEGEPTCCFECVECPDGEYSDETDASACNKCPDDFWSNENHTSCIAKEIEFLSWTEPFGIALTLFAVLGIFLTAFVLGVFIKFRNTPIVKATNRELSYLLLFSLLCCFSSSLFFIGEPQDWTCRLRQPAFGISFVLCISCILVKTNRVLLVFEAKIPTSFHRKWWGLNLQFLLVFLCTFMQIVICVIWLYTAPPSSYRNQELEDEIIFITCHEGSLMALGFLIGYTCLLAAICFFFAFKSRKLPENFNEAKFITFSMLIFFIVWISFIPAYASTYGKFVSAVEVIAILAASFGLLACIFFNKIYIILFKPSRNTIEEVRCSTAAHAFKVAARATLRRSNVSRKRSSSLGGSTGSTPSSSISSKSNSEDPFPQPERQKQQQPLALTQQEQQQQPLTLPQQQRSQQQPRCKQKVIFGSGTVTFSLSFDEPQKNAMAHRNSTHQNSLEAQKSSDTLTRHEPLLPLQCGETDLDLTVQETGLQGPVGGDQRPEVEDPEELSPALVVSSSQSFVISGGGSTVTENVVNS
Experiment: [Ca2+]i measurement with fluo-3 in HEK 293 4.0-7 cells stably transfected with hPCaR
Type: cell-based
Conditions: fluo-3 fluorescence (485/530 nm), effect on [Ca^2+]i
Outline: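 Cytosolic [Ca2+] was read as fluo-3 fluorescence (ex 485/em 530 nm) after compound addition to washed cells. Cells were hPCaR-transfected HEK 293 clone 7, dye-loaded 30 min at 37 °C with 2 μM fluo-3 acetoxymethyl ester in HEPES-buffered saline pH 7.45 containing 1 mM CaCl2 and 0.5% BSA.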

Compound	EC50
COc1cccc(-c2cc(CN[C@H](C)c3cccc4ccccc34)ccc2OC)c1 [(1R)-N-((3′,6-bis(methyloxy)-1,1′-biphenyl-3-yl)methyl)-1-(1-naphthalenyl)ethanamine]	≤ 10 µM
COc1cccc(-c2cc(CN[C@H](C)c3cccc(OC)c3)ccc2OC)c1 [(1R)-N-((3′,6-bis(methyloxy)-1,1′-biphenyl-3-yl)methyl)-1-(3-(methyloxy)phenyl)ethanamine]	≤ 10 µM
COc1cccc(-c2cccc(CN[C@H](C)c3cccc(OC)c3)c2)c1 [(1R)-N-((3′-(methyloxy)-1,1′-biphenyl-3-yl)methyl)-1-(3-(methyloxy)phenyl)ethanamine]	≤ 10 µM
COc1ccc([C@@H](C)NCc2cccc(-c3cccc(OC)c3)c2)cc1 [(1R)-N-((3′-(methyloxy)-1,1′-biphenyl-3-yl)methyl)-1-(4-(methyloxy)phenyl)ethanamine]	≤ 10 µM
COc1cccc(-c2cccc(CN[C@H](C)c3ccc(C)cc3)c2)c1 [(1R)-N-((3′-(methyloxy)-1,1′-biphenyl-3-yl)methyl)-1-(4-methylphenyl)ethanamine]	≤ 10 µM
COc1cccc(-c2cccc(CN[C@H](C)c3ccccc3)c2)c1 [(1R)-N-((3′-(methyloxy)-1,1′-biphenyl-3-yl)methyl)-1-phenylethanamine]	≤ 10 µM
Cc1noc(C)c1-c1ccc(CN[C@H](C)c2cccc3ccccc23)cc1 [(1R)-N-((4-(3,5-dimethyl-4-isoxazolyl)phenyl)methyl)-1-(1-naphthalenyl)ethanamine]	≤ 10 µM
C[C@@H](NCc1ccc(OC(F)F)c(-c2cccnc2)c1)c1cccc2ccccc12 [(1R)-N-((4-((difluoromethyl)oxy)-3-(3-pyridinyl)phenyl)methyl)-1-(1-naphthalenyl)ethanamine]	≤ 10 µM
COc1cccc([C@@H](C)NCc2ccc(OC(F)F)c(-c3cccnc3)c2)c1 [(1R)-N-((4-((difluoromethyl)oxy)-3-(3-pyridinyl)phenyl)methyl)-1-(3-(methyloxy)phenyl)ethanamine]	≤ 10 µM
C[C@@H](NCc1ccc(OC(F)F)c(-c2cccnc2)c1)c1ccccc1 [(1R)-N-((4-((difluoromethyl)oxy)-3-(3-pyridinyl)phenyl)methyl)-1-phenylethanamine]	≤ 10 µM
COc1ccc(CN[C@H](C)c2cccc3ccccc23)cc1-c1nccs1 [(1R)-N-((4-(methyloxy)-3-(1,3-thiazol-2-yl)phenyl)methyl)-1-(1-naphthalenyl)ethanamine]	≤ 10 µM
COc1ccc(CN[C@H](C)c2ccc3ccccc3c2)cc1-c1nccs1 [(1R)-N-((4-(methyloxy)-3-(1,3-thiazol-2-yl)phenyl)methyl)-1-(2-naphthalenyl)ethanamine]	≤ 10 µM
COc1ccc(CN[C@H](C)c2ccc(C)cc2)cc1-c1nccs1 [(1R)-N-((4-(methyloxy)-3-(1,3-thiazol-2-yl)phenyl)methyl)-1-(4-methylphenyl)ethanamine]	≤ 10 µM
COc1ccc(CN[C@H](C)c2ccccc2)cc1-c1nccs1 [(1R)-N-((4-(methyloxy)-3-(1,3-thiazol-2-yl)phenyl)methyl)-1-phenylethanamine]	≤ 10 µM
COc1ccc(CN[C@H](C)c2cccc3ccccc23)cc1-c1ccc2c(ccn2CC(F)(F)F)c1 [(1R)-N-((4-(methyloxy)-3-(1-(2,2,2-trifluoroethyl)-1H-indol-5-yl)phenyl)methyl)-1-(1-naphthalenyl)ethanamine]	≤ 10 µM
COc1ccc(CN[C@H](C)c2ccccc2)cc1-c1ccc2c(ccn2CC(F)(F)F)c1 [(1R)-N-((4-(methyloxy)-3-(1-(2,2,2-trifluoroethyl)-1H-indol-5-yl)phenyl)methyl)-1-phenylethanamine]	≤ 10 µM
COCC(=O)N1CCC(c2cc(CN[C@H](C)c3cccc4ccccc34)ccc2OC)CC1 [(1R)-N-((4-(methyloxy)-3-(1-((methyloxy)acetyl)-4-piperidinyl)phenyl)methyl)-1-(1-naphthalenyl)ethanamine]	≤ 10 µM

Compound	EC50
COc1ccc(CN[C@H](C)c2cccc3ccccc23)cc1-c1cnc2c(ccn2C)c1 [(1R)-N-((4-(methyloxy)-3-(1-methyl-1H-pyrrolo[2,3-b]pyridin-5-yl)phenyl)methyl)-1-(1-naphthalenyl)ethanamine]	≤ 10 µM
COc1cccc([C@@H](C)NCc2ccc(OC)c(-c3cnc4c(ccn4C)c3)c2)c1 [(1R)-N-((4-(methyloxy)-3-(1-methyl-1H-pyrrolo[2,3-b]pyridin-5-yl)phenyl)methyl)-1-(3-(methyloxy)phenyl)ethanamine]	≤ 10 µM
COc1ccc(CN[C@H](C)c2ccccc2)cc1-c1cnc2c(ccn2C)c1 [(1R)-N-((4-(methyloxy)-3-(1-methyl-1H-pyrrolo[2,3-b]pyridin-5-yl)phenyl)methyl)-1-phenylethanamine]	≤ 10 µM
COc1ccc(CN[C@H](C)c2cccc3ccccc23)cc1-c1ccc2c(c1)nc(C(F)(F)F)n2C [(1R)-N-((4-(methyloxy)-3-(1-methyl-2-(trifluoromethyl)-1H-benzimidazol-5-yl)phenyl)methyl)-1-(1-naphthalenyl)ethanamine]	≤ 10 µM
COc1ccc(CN[C@H](C)c2ccccc2)cc1-c1ccc2c(c1)nc(C(F)(F)F)n2C [(1R)-N-((4-(methyloxy)-3-(1-methyl-2-(trifluoromethyl)-1H-benzimidazol-5-yl)phenyl)methyl)-1-phenylethanamine]	≤ 10 µM
COc1ccc(CN[C@H](C)c2cccc3ccccc23)cc1C1CCN(C)CC1 [(1R)-N-((4-(methyloxy)-3-(1-methyl-4-piperidinyl)phenyl)methyl)-1-(1-naphthalenyl)ethanamine]	≤ 10 µM
COc1cccc([C@@H](C)NCc2ccc(OC)c(C3CCN(C)CC3)c2)c1 [(1R)-N-((4-(methyloxy)-3-(1-methyl-4-piperidinyl)phenyl)methyl)-1-(3-(methyloxy)phenyl)ethanamine]	≤ 10 µM
COc1ccc(CN[C@H](C)c2cccc3ccccc23)cc1N1CCCC1 [(1R)-N-((4-(methyloxy)-3-(1-pyrrolidinyl)phenyl)methyl)-1-(1-naphthalenyl)ethanamine]	≤ 10 µM
COc1ccc(CN[C@H](C)c2ccccc2)cc1N1CCCC1 [(1R)-N-((4-(methyloxy)-3-(1-pyrrolidinyl)phenyl)methyl)-1-phenylethanamine]	≤ 10 µM
COc1ccc(CN[C@H](C)c2cccc3ccccc23)cc1-n1cccc1 [(1R)-N-((4-(methyloxy)-3-(1H-pyrrol-1-yl)phenyl)methyl)-1-(1-naphthalenyl)ethanamine]	≤ 10 µM
COc1ccc(CN[C@H](C)c2ccccc2)cc1-n1cccc1 [(1R)-N-((4-(methyloxy)-3-(1H-pyrrol-1-yl)phenyl)methyl)-1-phenylethanamine]	≤ 10 µM
COc1ccc(CN[C@H](C)c2cccc3ccccc23)cc1-c1csc(N2CCCCC2)n1 [(1R)-N-((4-(methyloxy)-3-(2-(1-piperidinyl)-1,3-thiazol-4-yl)phenyl)methyl)-1-(1-naphthalenyl)ethanamine]	≤ 10 µM
COc1ccc(CN[C@H](C)c2ccccc2)cc1-c1csc(N2CCCCC2)n1 [(1R)-N-((4-(methyloxy)-3-(2-(1-piperidinyl)-1,3-thiazol-4-yl)phenyl)methyl)-1-phenylethanamine]	≤ 10 µM
COc1ccc(CN[C@H](C)c2ccccc2)cc1-c1cccnc1N1CCOCC1 [(1R)-N-((4-(methyloxy)-3-(2-(4-morpholinyl)-3-pyridinyl)phenyl)methyl)-1-phenylethanamine]	≤ 10 µM
COc1ccc(CN[C@H](C)c2ccccc2)cc1-c1cccnc1OCC(F)(F)F [(1R)-N-((4-(methyloxy)-3-(2-((2,2,2-trifluoroethyl)oxy)-3-pyridinyl)phenyl)methyl)-1-phenylethanamine]	≤ 10 µM
COc1ccc(CN[C@H](C)c2cccc3ccccc23)cc1-c1cnc(OCC(F)(F)F)nc1 [(1R)-N-((4-(methyloxy)-3-(2-((2,2,2-trifluoroethyl)oxy)-5-pyrimidinyl)phenyl)methyl)-1-(1-naphthalenyl)ethanamine]	≤ 10 µM
COc1ccc(CN[C@H](C)c2ccccc2)cc1-c1cnc(OCC(F)(F)F)nc1 [(1R)-N-((4-(methyloxy)-3-(2-((2,2,2-trifluoroethyl)oxy)-5-pyrimidinyl)phenyl)methyl)-1-phenylethanamine]	≤ 10 µM
